# Measurements as given in patent US6362337B1, “Substituted phenyluracils” (Bayer Aktiengesellschaft, priority 1997, dated 2002).
# Tests used:
# weeds [1] = experiment: Pre-emergence test, action against weeds; format: in vivo; conditions: soil sprayed about 24 hours after sowing, rated after three weeks vs untreated control
# Description: (§1) To produce a suitable preparation of active compound, 1 part by weight of active compound is mixed with the stated amount of solvent, the stated amount of emulsifier is added and the concentrate is diluted with water to the desired concentration.
# (§2) Seeds of the test plants are sown in normal soil. After about 24 hours, the soil is sprayed with the preparation of active compound such that the particular amounts of active compound desired are applied per unit area. The concentration of the spray liquor is chosen so that the particular amounts of active compound desired are applied in 1000 l of water/ha.
# (§3) After three weeks, the degree of damage to the plants is rated in % damage in comparison with the development of the untreated control.
# (§4) 0%=no effect (like untreated control)
# weeds [2] = experiment: Post-emergence test, action against weeds; format: in vivo; conditions: test plants 5-15 cm sprayed, rated after three weeks vs untreated control
# Description: as §1
# as §2, with “Test plants having a height” for “Seeds”, “5-15 cm” for “the test plants”, “are” for “are sown in normal soil. After about 24 hours, the soil is”
# as §3, §4
Structure (SMILES),melting point [°C],action against weeds (degree of damage to the plants) (weeds [1]),action against weeds (degree of damage to the plants) (weeds [2])
"CCOC(=O)c1cc(-n2c(=O)cc(C(F)(F)F)[nH]c2=O)ccc1OC(C)=O [Example 1, 3-(4-acetoxy-3-ethoxycarbonyl-phenyl)-6-trifluoromethyl-1,2,3,4-tetrahydro-1H-pyrimidine-2,4-dione]",155,,
"CCOC(=O)c1cc(-n2c(=O)cc(C(F)(F)F)n(C)c2=O)ccc1OC(C)=O [Example 2, 3-(4-acetoxy-3-ethoxycarbonyl-phenyl)-1-methyl-6-trifluoromethyl-1,2,3,4-tetrahydro-1H-pyrimidine-2,4-dione]",148,very strong action against weeds,very strong action against weeds
"CCOC(=O)c1cc(-n2c(=O)cc(C(F)(F)F)n(N)c2=O)ccc1OC(C)=O [Example 3, 1-amino-3-(4-acetoxy-3-ethoxycarbonyl-phenyl)-6-trifluoromethyl-1,2,3,4-tetrahydro-1H-pyrimidine-2,4-dione]",190,very strong action against weeds,very strong action against weeds
